Where two headings read alike, the source gives them in different places.
What was measured:
5-HT2A receptor = molecular target: T1, 5-HT2A receptor (Homo sapiens, UniProt P28223); test: FLIPR Ca2+ flux functional assay, 5-HT2A; format: cell-based
T1 construct: host or cells: HEK293
Experimental: Activity at 5-HT2A, 5-HT2B and 5-HT2C receptors was determined using a FLIPR Ca^2+ flux assay at WuXi AppTec Co. Ltd. (Hong Kong) Discovery Biology Unit according to their standard protocols. Briefly, stably transfected cells expressing the receptor of interest (HEK293 for 5-HT2A and 5-HT2C; CHO-K1 for 5-HT2B) were grown and plated in a 384 well plate and incubated at 37° C. and 5% CO2 overnight. A 250 mM stock solution of probenecid in FLIPR calcium assay buffer (10 mL) was freshly prepared and combined with a fluorescent dye (Fluo-4 Direct) to give a final assay concentration of 2.5 mM. Reference compounds were 4-fold serially diluted and the screening compounds were 3-fold serially diluted in 100% DMSO for 10 points using Agilent Bravo, and 750 nL was added to a 384 well compound plate using Echo along with 30 μL assay buffer. The fluorescent dye was then added to the assay plate along with assay buffer to a final volume of […]. The cell plate was incubated for 50 min at 37° C. and 5% CO2 and placed into the FLIPR Tetra along with the compound plate. 10 μL of references and compounds were then transferred from the compound plate into the cell plate and the fluorescent signal was read.

5-HT2B receptor = molecular target: T2, 5-HT2B receptor (Homo sapiens, UniProt P41595); test: cell-based
T2 construct: host or cells: CHO-K1

5-HT2C receptor = molecular target: T3, 5-HT2C receptor (Homo sapiens, UniProt P28335); test: cell-based
T3 construct: host or cells: HEK293
T3 sequence (P28335 33-458): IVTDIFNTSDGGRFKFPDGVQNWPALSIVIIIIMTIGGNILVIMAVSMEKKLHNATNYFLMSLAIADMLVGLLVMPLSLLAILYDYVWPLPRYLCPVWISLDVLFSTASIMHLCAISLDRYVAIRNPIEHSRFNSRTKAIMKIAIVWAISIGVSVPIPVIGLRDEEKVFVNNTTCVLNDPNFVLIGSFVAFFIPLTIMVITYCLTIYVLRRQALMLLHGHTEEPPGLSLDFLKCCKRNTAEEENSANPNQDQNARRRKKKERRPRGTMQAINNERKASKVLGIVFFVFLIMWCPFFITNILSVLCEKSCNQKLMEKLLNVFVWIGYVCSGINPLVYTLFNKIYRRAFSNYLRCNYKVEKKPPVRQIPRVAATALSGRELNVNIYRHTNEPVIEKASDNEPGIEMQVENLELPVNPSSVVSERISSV

[1] = agonist activity, Ca2+ flux, HEK293 cells
[2] = agonist activity, Ca2+ flux, HEK293 cells, read-out: 5-HT2A EC50
[3] = agonist activity, Ca2+ flux, CHO-K1 cells
[4] = agonist activity, Ca2+ flux, CHO-K1 cells, read-out: 5-HT2B EC50
[5] = agonist activity, Ca2+ flux, HEK293 cells, read-out: 5-HT2C EC50

T2 sequence (P41595 whole entry): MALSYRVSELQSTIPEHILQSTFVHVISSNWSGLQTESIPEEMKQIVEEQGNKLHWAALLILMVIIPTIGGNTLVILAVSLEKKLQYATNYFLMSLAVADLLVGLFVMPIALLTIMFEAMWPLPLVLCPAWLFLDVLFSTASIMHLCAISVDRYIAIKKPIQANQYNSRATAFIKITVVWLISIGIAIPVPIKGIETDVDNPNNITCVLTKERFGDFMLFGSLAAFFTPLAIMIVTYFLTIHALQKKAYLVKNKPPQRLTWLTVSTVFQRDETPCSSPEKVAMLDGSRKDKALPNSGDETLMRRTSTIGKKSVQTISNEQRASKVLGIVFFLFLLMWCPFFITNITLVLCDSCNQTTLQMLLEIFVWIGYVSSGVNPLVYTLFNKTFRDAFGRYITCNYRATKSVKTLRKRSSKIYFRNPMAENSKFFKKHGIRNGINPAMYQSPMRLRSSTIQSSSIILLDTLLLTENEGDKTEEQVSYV
T1 sequence (P28223 whole entry): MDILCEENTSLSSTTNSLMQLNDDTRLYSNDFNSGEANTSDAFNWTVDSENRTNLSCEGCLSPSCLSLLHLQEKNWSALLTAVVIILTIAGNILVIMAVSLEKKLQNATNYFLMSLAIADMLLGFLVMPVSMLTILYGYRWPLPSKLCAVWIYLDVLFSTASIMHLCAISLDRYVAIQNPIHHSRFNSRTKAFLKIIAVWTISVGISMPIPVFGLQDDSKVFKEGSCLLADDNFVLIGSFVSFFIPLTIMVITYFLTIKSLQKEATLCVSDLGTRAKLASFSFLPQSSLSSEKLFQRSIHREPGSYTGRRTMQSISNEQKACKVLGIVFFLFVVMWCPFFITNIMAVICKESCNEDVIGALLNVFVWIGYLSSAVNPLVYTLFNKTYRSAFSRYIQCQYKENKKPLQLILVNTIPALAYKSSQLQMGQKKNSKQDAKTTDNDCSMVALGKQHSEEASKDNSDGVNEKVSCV

What does the source list for `CCN(CC)CCc1c[nH]c2cc(F)cc(OC)c12` [Example P-98, N,N-diethyl-2-(6-fluoro-4-methoxy-1H-indol-3-yl)ethan-1-amine]?
Emax (5-HT2A receptor; [1]): 64.3%; EC50 (5-HT2A receptor; [2]): 16 nM; Emax (5-HT2B receptor; [3]): 63.6%; EC50 (5-HT2B receptor; [4]): 5430 nM; Emax (5-HT2C receptor; [1]): 71.8%; EC50 (5-HT2C receptor; [5]): 311 nM

For `CCN(CCc1c[nH]c2cc(F)cc(OC)c12)C(C)C` [Example P-99, N-ethyl-N-(2-(6-fluoro-4-methoxy-1H-indol-3-yl)ethyl)propan-2-amine], which Emax (5-HT2A receptor; [1]) is on record?
The Emax was 81.4%.

What about the EC50 (5-HT2A receptor; [2]) of the same molecule?
Its EC50 is 30.7 nM.

And the Emax (5-HT2B receptor; [3])?
Its Emax is 116%.

What about the EC50 (5-HT2B receptor; [4]) of the same molecule?
The EC50 was 913 nM.

And the Emax (5-HT2C receptor; [1])?
Its Emax is 79.3%.

What about the EC50 (5-HT2C receptor; [5]) of the same molecule?
The EC50 was 755 nM.

How did the Emax (5-HT2A receptor; [1]) turn out when `COc1cc(F)cc2[nH]cc(CCN(C(C)C)C(C)C)c12` [Example P-100, N-(2-(6-fluoro-4-methoxy-1H-indol-3-yl)ethyl)-N-isopropylpropan-2-amine] was run?
The Emax was 91.3%.

What about the EC50 (5-HT2A receptor; [2]) of the same molecule?
Its EC50 is 51.4 nM.

What about the Emax (5-HT2B receptor; [3]) of the same molecule?
Its Emax is 128%.

What about the EC50 (5-HT2B receptor; [4]) of the same molecule?
The EC50 was 436 nM.

What about the Emax (5-HT2C receptor; [1]) of the same molecule?
The Emax was 76.9%.

And the EC50 (5-HT2C receptor; [5])?
The EC50 was 864 nM.

How did the Emax (5-HT2A receptor; [1]) turn out when `COc1ccc(F)c2[nH]cc(CCN(C)C)c12` [Example P-101, 2-(7-fluoro-4-methoxy-1H-indol-3-yl)-N,N-dimethylethan-1-amine] was run?
The Emax was 71.6%.

What about the EC50 (5-HT2A receptor; [2]) of the same molecule?
The EC50 was 3.84 nM.

And the Emax (5-HT2B receptor; [3])?
The Emax was 4.06%.

What about the EC50 (5-HT2B receptor; [4]) of the same molecule?
Its EC50 is over 10000 nM.

What about the Emax (5-HT2C receptor; [1]) of the same molecule?
The Emax was 53.1%.

And the EC50 (5-HT2C receptor; [5])?
The EC50 was 8.28 nM.

`CCN(C)CCc1c[nH]c2c(F)ccc(OC)c12` [Example P-102, N-ethyl-2-(7-fluoro-4-methoxy-1H-indol-3-yl)-N-methylethan-1-amine] was tested. Which Emax (5-HT2A receptor; [1]) did it give?
The Emax was 60.8%.

What about the EC50 (5-HT2A receptor; [2]) of the same molecule?
The EC50 was 15 nM.

What about the Emax (5-HT2B receptor; [3]) of the same molecule?
Its Emax is 3.44%.

What about the EC50 (5-HT2B receptor; [4]) of the same molecule?
The EC50 was over 10000 nM.

What about the Emax (5-HT2C receptor; [1]) of the same molecule?
The Emax was 47.5%.

What about the EC50 (5-HT2C receptor; [5]) of the same molecule?
Its EC50 is 155 nM.

`COc1ccc(F)c2[nH]cc(CCN(C)C(C)C)c12` [Example P-103, N-(2-(7-fluoro-4-methoxy-1H-indol-3-yl)ethyl)-N-methylpropan-2-amine] was tested. Which Emax (5-HT2A receptor; [1]) did it give?
The Emax was 61.8%.

And the EC50 (5-HT2A receptor; [2])?
Its EC50 is 34.6 nM.

And the Emax (5-HT2B receptor; [3])?
The Emax was 3.67%.

And the EC50 (5-HT2B receptor; [4])?
Its EC50 is over 10000 nM.

And the Emax (5-HT2C receptor; [1])?
Its Emax is 7.02%.

And the EC50 (5-HT2C receptor; [5])?
The EC50 was over 10000 nM.

How did the Emax (5-HT2A receptor; [1]) turn out when `CCN(CC)CCc1c[nH]c2c(F)ccc(OC)c12` [Example P-104, N,N-diethyl-2-(7-fluoro-4-methoxy-1H-indol-3-yl)ethan-1-amine] was run?
Its Emax is 77.5%.

What about the EC50 (5-HT2A receptor; [2]) of the same molecule?
Its EC50 is 28.3 nM.

And the Emax (5-HT2B receptor; [3])?
The Emax was 13.1%.

What about the EC50 (5-HT2B receptor; [4]) of the same molecule?
The EC50 was over 10000 nM.

What about the Emax (5-HT2C receptor; [1]) of the same molecule?
Its Emax is 52.5%.

And the EC50 (5-HT2C receptor; [5])?
The EC50 was 8180 nM.

Which results are given for `COc1ccc(F)c2[nH]cc(CCN(C(C)C)C(C)C)c12` [Example P-105, N-(2-(7-fluoro-4-methoxy-1H-indol-3-yl)ethyl)-N-isopropylpropan-2-amine]?
Emax (5-HT2A receptor; [1]): 91.2%; EC50 (5-HT2A receptor; [2]): 147 nM; Emax (5-HT2B receptor; [3]): 127%; EC50 (5-HT2B receptor; [4]): 134 nM; Emax (5-HT2C receptor; [1]): 92.6%; EC50 (5-HT2C receptor; [5]): 1200 nM

What does the source list for `CCN(C)CCc1c[nH]c2c(F)cc(OC)cc12` [Example P-115, N-ethyl-2-(7-fluoro-5-methoxy-1H-indol-3-yl)-N-methylethan-1-amine]?
Emax (5-HT2A receptor; [1]): 85.6%; Emax (5-HT2B receptor; [3]): 16.4%; Emax (5-HT2C receptor; [1]): 81.7%

What does the source list for `COc1cc(F)c2[nH]cc(CCN(C)C(C)C)c2c1` [Example P-116, N-(2-(7-fluoro-5-methoxy-1H-indol-3-yl)ethyl)-N-methylpropan-2-amine]?
Emax (5-HT2A receptor; [1]): 60.2%; EC50 (5-HT2A receptor; [2]): 15.7 nM; Emax (5-HT2B receptor; [3]): 23.1%; EC50 (5-HT2B receptor; [4]): 136 nM; Emax (5-HT2C receptor; [1]): 60.5%; EC50 (5-HT2C receptor; [5]): 720 nM

What does the source list for `CCN(CC)CCc1c[nH]c2c(F)cc(OC)cc12` [Example P-117, N,N-diethyl-2-(7-fluoro-5-methoxy-1H-indol-3-yl)ethan-1-amine]?
Emax (5-HT2A receptor; [1]): 95.8%; Emax (5-HT2B receptor; [3]): 41.2%; Emax (5-HT2C receptor; [1]): 81.5%

Which Emax (5-HT2A receptor; [1]) does the source give for `COc1cc(F)c2[nH]cc(CCN(C(C)C)C(C)C)c2c1` [Example P-118, N-(2-(7-fluoro-5-methoxy-1H-indol-3-yl)ethyl)-N-isopropylpropan-2-amine] here?
Its Emax is 82.2%.

And the EC50 (5-HT2A receptor; [2])?
The EC50 was 17.4 nM.

And the Emax (5-HT2B receptor; [3])?
Its Emax is 95.2%.

What about the EC50 (5-HT2B receptor; [4]) of the same molecule?
The EC50 was 66.3 nM.

And the Emax (5-HT2C receptor; [1])?
The Emax was 97.1%.

And the EC50 (5-HT2C receptor; [5])?
Its EC50 is 695 nM.

What does the source list for `CN(C)CCc1c[nH]c2ccc3oc(=O)[nH]c3c12` [Example P-125, 8-(2-(dimethylamino)ethyl)-1,6-dihydro-2H-oxazolo[4,5-e]indol-2-one]?
EC50 (5-HT2A receptor): 48.5 nM; Emax (5-HT2A receptor; [1]): 75.5%; EC50 (5-HT2B receptor): 14.3 nM; Emax (5-HT2B receptor; [3]): 42.5%; EC50 (5-HT2C receptor): 538 nM; Emax (5-HT2C receptor; [1]): 56.7%

How did the EC50 (5-HT2A receptor) turn out when `CCN(C)CCc1c[nH]c2ccc3ocnc3c12` [Example P-127, N-ethyl-N-methyl-2-(6H-oxazolo[4,5-e]indol-8-yl)ethan-1-amine] was run?
Its EC50 is 12 nM.

And the Emax (5-HT2A receptor; [1])?
Its Emax is 54%.

What about the EC50 (5-HT2B receptor) of the same molecule?
Its EC50 is over 10000 nM.

What about the Emax (5-HT2B receptor; [3]) of the same molecule?
The Emax was 10.5%.

And the EC50 (5-HT2C receptor)?
Its EC50 is 30.7 nM.

And the Emax (5-HT2C receptor; [1])?
The Emax was 70.5%.

From patent publication US20250101038A1, “COMPOUNDS” (priority 2021, published 2025)
